# Results published in patent US20040152641A1, “Use of polymethoxylated flavones for treating insulin resistance” (priority 2001, published 2004).
# Legend:
# [1] = biological target: alpha-glucosidase Type 1 from bakers yeast (Saccharomyces cerevisiae, UniProt P53341); experiment: In vitro inhibition of alpha-glucosidase; format: biochemical; conditions: 30 min, 37° C., p-nitrophenyl-alpha-D-glucopyranoside
# Experimental: For the assay, alpha-glucosidase Type 1 from bakers yeast was incubated for 30 min, at 37° C., in the presence of substrate (p-nitrophenyl-alpha-D-glucopyranoside) and in the presence vs. absence of citrus flavonoids or coumarins at concentrations ranging from 3 to 200 μg/mL (0.01 to 1.8 mM). The reaction was stopped by addition of 0.2 M Na2CO3 and absorbance was measured at 405 nm. Background absorbance (without enzyme) was subtracted for every flavonoid or coumarins concentration used. The inhibitory activity was expressed as percent control and IC50 values (concentrations of compounds required to inhibit alpha-glucosidase by 50%) were calculated.
# [2] = system: hamsters with casein-induced hypercholesterolemia; conditions: 0.13-1.0% supplementation; cited from earlier work
# HepG2 cells = experiment: Medium apo B in HepG2 cells made insulin-resistant by long-term insulin incubation; format: cell-based, human; conditions: insulin plus 25 μg/mL tangeretin, 5 days, Elisa
# Experimental: In the cell culture study, 80-90% confluent HepG2 cells were incubated for 5 days with the following media:
# 1. Minimum essential medium containing 1% bovine serum albumin (MEM+BSA)
# 2. The same medium containing […] bovine insulin
# All media were changed on day 3 to maintain high concentration of insulin (which undergoes partial degradation after long-term incubation). After 5 days, media and cells were collected. Medium concentrations of apo B were measured by Elisa and expressed as μg per mg cell protein as described previously^8.
# [3] = system: human liver cell line HepG2; conditions: cited from earlier work
# [4] = system: hamsters made insulin resistant by feeding 60% fructose diet; experiment: Hamsters made insulin resistant by 60% fructose diet, tangeretin supplementation, 2 weeks; conditions: for HDL cholesterol / Insulin / NEFA / NO2/NO3 / Triacylglycerols / VLDL + LDL cholesterol / Total cholesterol: serum, mean ± SD
# Experimental: Diets were pair-fed to control for 2 weeks. After that time, fasting blood samples were collected by heart puncture for measurement of plasma lipids, glucose, NEFA, insulin and nitrites/nitrates (end products of nitric oxide metabolism). Total cholesterol in whole serum and in HDL fraction as well as total triglycerides and glucose were measured by enzymatic timed-endpoint methods, using the Beckman Coulter reagents and SYNCHRON™ LX System. VLDL+LDL cholesterol concentrations were calculated as a difference between total and HDL cholesterol. NEFA were determined enzymatically by NEFA C kit (Wako Chemicals USA Inc., Richmond, Va.). Serum insulin was measured using Rat Insulin RIA kit from Linco Research Inc. St. Charles, Mo. Serum nitrates/nitrites concentrations were determined using Nitrate/Nitrite Colorimetric Assay kit from Cayman Chemical Co., Ann Arbor, Mich.
# alpha-glucosidase = conditions: cited from earlier work
# Chain of alpha-glucosidase Type 1 from bakers yeast (P53341 whole entry): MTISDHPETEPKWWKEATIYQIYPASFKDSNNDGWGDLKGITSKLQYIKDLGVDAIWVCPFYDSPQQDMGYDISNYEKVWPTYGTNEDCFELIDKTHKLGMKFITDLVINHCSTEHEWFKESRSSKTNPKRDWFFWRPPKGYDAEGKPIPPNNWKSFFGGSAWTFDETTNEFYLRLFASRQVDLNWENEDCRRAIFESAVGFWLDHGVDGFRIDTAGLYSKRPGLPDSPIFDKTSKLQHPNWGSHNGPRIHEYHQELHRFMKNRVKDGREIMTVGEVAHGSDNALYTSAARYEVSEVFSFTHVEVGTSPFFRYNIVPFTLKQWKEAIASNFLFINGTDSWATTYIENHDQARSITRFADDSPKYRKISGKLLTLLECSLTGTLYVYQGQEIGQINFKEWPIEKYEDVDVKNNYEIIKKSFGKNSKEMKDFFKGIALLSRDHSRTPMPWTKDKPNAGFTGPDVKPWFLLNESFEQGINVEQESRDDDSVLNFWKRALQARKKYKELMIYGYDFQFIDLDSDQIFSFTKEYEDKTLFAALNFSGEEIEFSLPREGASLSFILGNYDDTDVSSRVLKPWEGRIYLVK
structure (smiles),measurement,setting,value
COc1ccc(-c2oc3c(OC)c(OC)c(OC)c(OC)c3c(=O)c2OC)cc1OC [Heptamethoxyflavone],IC50,[1],500 µM
same,IC50 alpha-glucosidase,[1],201.7 µg/mL
"COc1ccc(-c2cc(=O)c3c(OC)c(OC)c(OC)c(OC)c3o2)cc1 [Tangeretin, 5,6,7,8,4′-pentamethoxyflavone]",serum content of triacylglycerols and cholesterol,[2],significantly reduced
same,"medium apo B reduced, compared to insulin alone",HepG2 cells,69%
same,production of apolipoprotein B (apo B),[3],substantially reduced
same,growth rate and food consumption between the groups,"[4]; 0.25-1.0% tangeretin, pair-fed, 2 weeks",no significant difference
same,% change HDL cholesterol,[4]; +0.25% Tan vs fructose group,0%
same,% change Insulin,[4]; +0.25% Tan vs fructose group,−13%
same,% change NEFA,[4]; +0.25% Tan vs fructose group,−23%
same,% change Total cholesterol,[4]; +0.25% Tan vs fructose group,−5%
same,% change Triacylglycerols,[4]; +0.25% Tan vs fructose group,−24%
same,% change HDL cholesterol,[4]; +0.5% Tan vs fructose group,−17%
same,% change Insulin,[4]; +0.5% Tan vs fructose group,−13%
same,% change NEFA,[4]; +0.5% Tan vs fructose group,−22%
same,% change Total cholesterol,[4]; +0.5% Tan vs fructose group,−22%
same,% change Triacylglycerols,[4]; +0.5% Tan vs fructose group,−27%
same,% change HDL cholesterol,[4]; +1.0% Tan vs fructose group,−27%
same,% change Insulin,[4]; +1.0% Tan vs fructose group,−20%
same,% change NEFA,[4]; +1.0% Tan vs fructose group,−18%
same,% change NO2/NO3,[4]; +1.0% Tan vs fructose group,+99%
same,% change Total cholesterol,[4]; +1.0% Tan vs fructose group,−20%
same,% change Triacylglycerols,[4]; +1.0% Tan vs fructose group,−32%
same,HDL cholesterol,[4]; fructose +0.25% Tan,2.55 ± 0.72 mmol/L
same,Insulin,[4]; fructose +0.25% Tan,735 ± 315 pmol/L
same,NEFA,[4]; fructose +0.25% Tan,1.48 ± 0.36 mEq/L
same,NO2/NO3,[4]; fructose +0.25% Tan,55.2 ± 18.8 µmol/L
same,Triacylglycerols,[4]; fructose +0.25% Tan,1.51 ± 0.56 mmol/L
same,VLDL + LDL cholesterol,[4]; fructose +0.25% Tan,0.62 ± 0.3 mmol/L
same,HDL cholesterol,[4]; fructose +0.5% Tan,1.93 ± 0.48 mmol/L
same,Insulin,[4]; fructose +0.5% Tan,729 ± 239 pmol/L
same,NEFA,[4]; fructose +0.5% Tan,1.50 ± 0.33 mEq/L
same,NO2/NO3,[4]; fructose +0.5% Tan,52.0 ± 18.5 µmol/L
same,Total cholesterol,[4]; fructose +0.5% Tan,2.61 ± 0.43 mmol/L
same,Triacylglycerols,[4]; fructose +0.5% Tan,1.45 ± 0.52 mmol/L
same,VLDL + LDL cholesterol,[4]; fructose +0.5% Tan,0.68 ± 0.28 mmol/L
same,HDL cholesterol,[4]; fructose +1.0% Tan,1.88 ± 0.26 mmol/L
same,Insulin,[4]; fructose +1.0% Tan,675 ± 296 pmol/L
same,NEFA,[4]; fructose +1.0% Tan,1.58 ± 0.32 mEq/L
same,NO2/NO3,[4]; fructose +1.0% Tan,106.3 ± 27.9 µmol/L
same,Total cholesterol,[4]; fructose +1.0% Tan,2.69 ± 0.23 mmol/L
same,Triacylglycerols,[4]; fructose +1.0% Tan,1.35 ± 0.57 mmol/L
same,VLDL + LDL cholesterol,[4]; fructose +1.0% Tan,0.81 ± 0.22 mmol/L
same,Serum nitrate/nitrite concentration,[4]; fructose with 1% tangeretin,doubled
same,Serum glucose,"[4]; supplementation with tangeretin, fructose diet",not altered
O=c1cc(-c2ccc(O)cc2)oc2cc(O)cc(O)c12 [apigenin],"inhibition of alpha-glucosidase, previous studies",alpha-glucosidase,inhibition
COc1ccc([C@@H]2CC(=O)c3c(O)cc(O[C@@H]4O[C@H](CO[C@@H]5O[C@@H](C)[C@H](O)[C@@H](O)[C@H]5O)[C@@H](O)[C@H](O)[C@H]4O)cc3O2)cc1O [hesperidin],"inhibition of alpha-glucosidase, previous studies",alpha-glucosidase,lack of alpha-glucosidase inhibition
O=c1cc(-c2ccc(O)c(O)c2)oc2cc(O)cc(O)c12 [luteolin],"inhibition of alpha-glucosidase, previous studies",alpha-glucosidase,inhibition
